One block for each compound: values may come before it.
Columns and labels:
[1] = tested on: PC-3; assay: Antiproliferative activity against human PC-3 cells assessed as cell growth inhibition by MTT assay; assay type: functional
[2] = tested on: NCI-H460; assay: Antiproliferative activity against human NCI-H460 cells assessed as cell growth inhibition by MTT assay; assay type: functional

SMILES: COc1ccc2c(c1)N(C/C=C(\C)CCC=C(C)C)C(=O)c1ccccc1N2
- GI50 [1]: 10.8 µM
- GI50 [2]: 43.9 µM

SMILES: COc1ccc2c(c1)N(Cc1cc(OC)c(OC)c(OC)c1)C(=O)c1ccccc1N2
- GI50 [1]: 10.2 µM
- GI50 [2]: 34.8 µM

SMILES: COc1ccc2c(c1)N(C/C=C/c1ccccc1)C(=O)c1ccccc1N2
- GI50 [1]: 7.37 µM
- GI50 [2]: 36.6 µM

SMILES: COc1ccc2c(c1)N(Cc1ccc(OC)c(OC)c1)C(=O)c1ccccc1N2
- GI50 [1]: 12.5 µM
- GI50 [2]: 44.4 µM

SMILES: O=C1c2ccccc2Nc2cnc(Cl)nc2N1C/C=C/c1ccccc1
- GI50 [1]: 12.5 µM

SMILES: COc1ccc(CN2C(=O)c3ccccc3Nc3cnc(Cl)nc32)cc1OC
- GI50 [1]: 8.31 µM

SMILES: COc1cc(CN2C(=O)c3ccccc3Nc3cnc(Cl)nc32)cc(OC)c1OC
- GI50 [1]: 8.23 µM

SMILES: COc1ccc2c(c1)N(C/C=C(\C)CC/C=C(\C)CCC=C(C)C)C(=O)c1ccccc1N2
- GI50 [1]: 11 µM
- GI50 [2]: 34.4 µM

SMILES: COc1ccc(CN2C(=O)c3ccccc3Nc3ccc(OC)cc32)cc1
- GI50 [1]: 10.6 µM

Further compounds by falling GI50 [1], results first:

- GI50 [1]: 7.29 µM
- GI50 [2]: 24.3 µM
SMILES: CC(C)=CCC/C(C)=C/CN1C(=O)c2ccccc2Nc2cnc(Cl)nc21

- GI50 [1]: 6.69 µM
SMILES: COc1ccc(CN2C(=O)c3ccccc3Nc3cnc(Cl)nc32)cc1

- GI50 [1]: 6.12 µM
- GI50 [2]: 38.1 µM
SMILES: CC(C)=CCN1C(=O)c2ccccc2Nc2cnc(Cl)nc21

- GI50 [1]: 5.94 µM
- GI50 [2]: 19.9 µM
SMILES: CC(C)=CCC/C(C)=C/CC/C(C)=C/CN1C(=O)c2ccccc2Nc2cnc(Cl)nc21

- GI50 [1]: 5.66 µM
- GI50 [2]: 25.6 µM
SMILES: COc1ccc2c(c1)N(CC=C(C)C)C(=O)c1ccccc1N2

- GI50 [1]: 1.95 µM
- GI50 [2]: 13.6 µM
SMILES: CC(C)=CCC/C(C)=C/CC/C(C)=C/CN1C(=O)c2cccc(O)c2Nc2c(O)cc(O)cc21 [DIAZEPINOMICIN]

Reference: ChEMBL document CHEMBL5143534, “Synthesis and biological evaluation of BU-4664L derivatives as potential anticancer agents” (2022)
